Assays:
FAAH = molecular target: T1, FAAH (Mus musculus, UniProt O08914); test: In vitro competitive activity-based protein profiling, mouse FAAH; assay type: biochemical; conditions: for inhibition at 1 µM: read-out: FAAH % inh. 1 μM (mouse)
T1 construct: mouse brain membrane fraction or cell lysates for mouse assays; from tissue
T1 sequence (O08914 1-579): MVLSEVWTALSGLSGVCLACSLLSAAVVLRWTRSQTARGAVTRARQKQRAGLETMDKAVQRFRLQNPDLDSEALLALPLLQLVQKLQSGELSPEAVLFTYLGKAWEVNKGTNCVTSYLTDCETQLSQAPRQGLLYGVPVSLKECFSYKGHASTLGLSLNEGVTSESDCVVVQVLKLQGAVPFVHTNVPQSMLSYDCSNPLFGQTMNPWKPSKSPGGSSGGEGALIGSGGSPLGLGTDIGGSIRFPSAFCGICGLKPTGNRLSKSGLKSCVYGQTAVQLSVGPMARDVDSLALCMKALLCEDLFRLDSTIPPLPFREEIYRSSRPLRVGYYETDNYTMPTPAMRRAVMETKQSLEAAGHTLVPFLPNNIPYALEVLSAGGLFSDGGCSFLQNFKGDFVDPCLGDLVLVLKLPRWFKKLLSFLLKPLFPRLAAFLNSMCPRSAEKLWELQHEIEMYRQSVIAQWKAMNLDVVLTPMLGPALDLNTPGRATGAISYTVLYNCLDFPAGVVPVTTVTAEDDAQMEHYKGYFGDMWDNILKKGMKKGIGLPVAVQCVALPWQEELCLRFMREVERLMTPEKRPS
Procedure, shortened: (§1)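 Mouse brain membranes or cell lysates (mouse) and human prefrontal cortex or cell membrane fractions (human), 1.0 mg/mL protein, preincubated with inhibitor 30 min at 37 °C, then FP-Rh or HT-01 probe 30 min at 37 °C. SDS-PAGE; MAGL and FAAH activity from in-gel fluorescence band intensity.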

MAGL = molecular target: T2, MAGL (Mus musculus, UniProt O35678); test: In vitro competitive activity-based protein profiling, mouse MAGL; assay type: biochemical; conditions: for inhibition at 1 µM: read-out: MAGL % inh. 1 μM (mouse)
T2 construct: mouse brain membrane fraction or cell lysates for mouse assays; from tissue
T2 sequence (O35678 1-303): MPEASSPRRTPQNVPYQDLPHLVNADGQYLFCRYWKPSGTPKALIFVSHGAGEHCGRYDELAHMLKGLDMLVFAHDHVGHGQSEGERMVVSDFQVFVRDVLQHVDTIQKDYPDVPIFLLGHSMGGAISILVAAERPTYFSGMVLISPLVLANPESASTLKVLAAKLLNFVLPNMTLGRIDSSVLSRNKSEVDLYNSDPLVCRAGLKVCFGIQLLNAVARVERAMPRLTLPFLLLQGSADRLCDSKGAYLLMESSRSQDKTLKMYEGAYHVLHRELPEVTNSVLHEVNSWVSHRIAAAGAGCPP
Procedure, shortened: as §1

inhibition at 1 µM (FAAH) [%] | inhibition at 1 µM (MAGL; 1 μM) [%] | IC50 (FAAH) [µM] | IC50 (MAGL) [µM] | inhibition at 10 µM (FAAH; 10 μM, read-out: FAAH % inh. at 10 μM (mouse)) [%] | inhibition at 10 µM (MAGL; 10 μM, read-out: MAGL % inh. at 10 μM (mouse)) [%] | Compound | MAGL % inh. 1 μM (mouse) (MAGL; 1 μM)
≥ 75 | ≥ 75 | – | – | – | – | NC(=O)c1cnn(C(=O)N2CCC3(CCN(Cc4ccc(N5CCCC5)cc4Cl)C3)C2)c1 (stereo not shown) [Example 205, 1-(7-(2-chloro-4-(pyrrolidin-1-yl)benzyl)-2,7-diazaspiro[4.4]nonane-2-carbonyl)-1H-pyrazole-4-carboxamide] | –
≥ 75 | 25 to 50 | ≤ 0.1 | 1 to 10 | – | – | O=C(c1cnn(C(=O)N2CC3CN(Cc4ccccc4Cl)CC3C2)c1)N1CCCCC1 (stereo not shown) [Example 1, (5-(2-chlorobenzyl)hexahydropyrrolo[3,4-c]pyrrol-2(1H)-yl)(4-(piperidine-1-carbonyl)-1H-pyrazol-1-yl)methanone] | –
≥ 75 | ≥ 75 | 0.1 to 1 | 0.1 to 1 | – | – | O=C(N1C[C@H]2C[C@@H](NCc3ccc(Cl)cc3)C[C@H]2C1)n1cc(Cl)cn1 [Example 71, (4-chloro-1H-pyrazol-1-yl)(cis-5-((4-chlorobenzyl)amino)hexahydrocyclopenta[c]pyrrol-2(1H)-yl)methanone] | –
≥ 75 | ≥ 75 | ≤ 0.1 | ≤ 0.1 | – | – | Cc1cc(-c2ccccc2)ccc1CN1CC2CN(C(=O)n3cc(Cl)cn3)CC2C1 (stereo not shown) [Example 121, (4-chloro-1H-pyrazol-1-yl)(5-((3-methyl-[1,1′-biphenyl]-4-yl)methyl)hexahydropyrrolo[3,4-c]pyrrol-2(1H)-yl)methanone] | –
≥ 75 | 50 to 75 | ≤ 0.1 | 1 to 10 | – | – | CNC(=O)c1cnn(C(=O)N2CC3CN(Cc4ccc(Cl)cc4)CC3C2)c1 (stereo not shown) [Example 17, 1-(5-(4-chlorobenzyl)octahydropyrrolo[3,4-c]pyrrole-2-carbonyl)-N-methyl-1H-pyrazole-4-carboxamide] | –
≥ 75 | ≥ 75 | ≤ 0.1 | ≤ 0.1 | – | – | O=C(N1CC2CN(Cc3cccc(N4CCCC4)c3)CC2C1)n1cc(C(F)(F)F)cn1 (stereo not shown) [Example 144, (5-(3-(pyrrolidin-1-yl)benzyl)hexahydropyrrolo[3,4-c]pyrrol-2(1H)-yl)(4-(trifluoromethyl)-1H-pyrazol-1-yl)methanone] | –
≥ 75 | 50 to 75 | – | – | – | – | CN(Cc1ccc(C(F)(F)F)cc1)[C@H]1C[C@@H]2CN(C(=O)n3cc(C(=O)N4CCOCC4)cn3)C[C@@H]2C1 [Example 184, (trans-5-(methyl(4-(trifluoromethyl)benzyl)amino)hexahydrocyclopenta[c]pyrrol-2(1H)-yl)(4-(morpholine-4-carbonyl)-1H-pyrazol-1-yl)methanone] | –
≥ 75 | – | – | – | – | – | CNC(=O)c1cnn(C(=O)N2C[C@H]3C[C@@H](N(C)Cc4ccccc4Cl)C[C@H]3C2)c1 [Example 56, 1-(trans-5-((2-chlorobenzyl)(methyl)amino)octahydrocyclopenta[c]pyrrole-2-carbonyl)-N-methyl-1H-pyrazole-4-carboxamide] | C (% inhibition greater than or equal to 25% and less than 50%)
≥ 75 | 0 to 25 | – | – | 100 | 50 | O=C(c1cnn(C(=O)N2CC3CN(Cc4ccc(Oc5ccc(Cl)cc5)cc4)CC3C2)c1)N1CCOCC1 (stereo not shown) [Example 200, (5-(4-(4-chlorophenoxy)benzyl)hexahydropyrrolo[3,4-c]pyrrol-2(1H)-yl)(4-(morpholine-4-carbonyl)-1H-pyrazol-1-yl)methanone] | –
≥ 75 | ≥ 75 | ≤ 0.1 | ≤ 0.1 | – | – | O=C(N1CC2CN(Cc3ccc(F)cc3)CC2C1)n1cc(C(F)(F)F)cn1 (stereo not shown) [Example 146, (5-(4-fluorobenzyl)hexahydropyrrolo[3,4-c]pyrrol-2(1H)-yl)(4-(trifluoromethyl)-1H-pyrazol-1-yl)methanone] | –
50 to 75 | ≥ 75 | – | – | – | – | O=C(c1cnn(C(=O)N2CCC3(CCN(Cc4cccc(C(F)(F)F)c4)C3)C2)c1)N1CCN(C2CC2)CC1 (stereo not shown) [Example 33, (4-cyclopropylpiperazin-1-yl)(1-(7-(3-(trifluoromethyl)benzyl)-2,7-diazaspiro[4.4]nonane-2-carbonyl)-1H-pyrazol-4-yl)methanone] | –
≥ 75 | ≥ 75 | ≤ 0.1 | 0.1 to 1 | – | – | CNC(=O)c1cnn(C(=O)N2CC3CN(Cc4cc(Cl)ccc4Cl)CC3C2)c1 (stereo not shown) [Example 21, 1-(5-(2,5-dichlorobenzyl)octahydropyrrolo[3,4-c]pyrrole-2-carbonyl)-N-methyl-1H-pyrazole-4-carboxamide] | –
≥ 75 | ≥ 75 | – | – | – | – | NC(=O)c1cnn(C(=O)N2CC3CN(Cc4cccc(C(F)(F)F)c4)CC3C2)c1 (stereo not shown) [Example 23, 1-(5-(3-(trifluoromethyl)benzyl)octahydropyrrolo[3,4-c]pyrrole-2-carbonyl)-1H-pyrazole-4-carboxamide] | –
≥ 75 | ≥ 75 | – | – | – | – | O=C(c1cnn(C(=O)N2CC3CN(Cc4cc(Cl)ccc4Cl)CC3C2)c1)N1CCOCC1 (stereo not shown) [Example 5, (5-(2,5-dichlorobenzyl)hexahydropyrrolo[3,4-c]pyrrol-2(1H)-yl)(4-(morpholine-4-carbonyl)-1H-pyrazol-1-yl)methanone] | –
≥ 75 | ≥ 75 | ≤ 0.1 | ≤ 0.1 | – | – | O=C(N1C[C@H]2C[C@H](NCc3ccccc3Cl)C[C@H]2C1)n1cc(Cl)cn1 [Example 64, (4-chloro-1H-pyrazol-1-yl)(trans-5-((2-chlorobenzyl)amino)hexahydrocyclopenta[c]pyrrol-2(1H)-yl)methanone] | –
50 to 75 | ≥ 75 | – | – | – | – | CN(Cc1ccc(-c2cccnn2)cc1C(F)(F)F)[C@H]1C[C@@H]2CN(C(=O)n3cc(C(N)=O)cn3)C[C@@H]2C1 [Example 225, 1-(trans-5-(methyl(4-(pyridazin-3-yl)-2-(trifluoromethyl)benzyl)amino)octahydrocyclopenta[c]pyrrole-2-carbonyl)-1H-pyrazole-4-carboxamide] | –
≥ 75 | ≥ 75 | – | – | – | – | CN(Cc1cc(C(F)(F)F)ccc1Cl)[C@@H]1C[C@@H]2CN(C(=O)n3cc(C(N)=O)cn3)C[C@@H]2C1 [Example 218, 1-(cis-5-((2-chloro-5-(trifluoromethyl)benzyl)(methyl)amino)octahydrocyclopenta[c]pyrrole-2-carbonyl)-1H-pyrazole-4-carboxamide] | –
≥ 75 | ≥ 75 | ≤ 0.1 | ≤ 0.1 | – | – | CN(Cc1cccc(Oc2ccccc2)c1)[C@H]1C[C@@H]2CN(C(=O)n3cc(Cl)cn3)C[C@@H]2C1 [Example 162, (4-chloro-1H-pyrazol-1-yl)(trans-5-(methyl(3-phenoxybenzyl)amino)hexahydrocyclopenta[c]pyrrol-2(1H)-yl)methanone] | –
≥ 75 | ≥ 75 | ≤ 0.1 | 0.1 to 1 | – | – | COc1cccc(CN2CCC3(CCN(C(=O)n4cc(C(F)(F)F)cn4)C3)C2)c1 (stereo not shown) [Example 171] | –
≥ 75 | ≥ 75 | 0.1 to 1 | ≤ 0.1 | – | – | O=C(N1CC2CN(Cc3ccccc3N3CCCC3)CC2C1)n1cc(C(F)(F)F)cn1 (stereo not shown) [Example 156, (5-(2-(pyrrolidin-1-yl)benzyl)hexahydropyrrolo[3,4-c]pyrrol-2(1H)-yl)(4-(trifluoromethyl)-1H-pyrazol-1-yl)methanone] | –
≥ 75 | ≥ 75 | – | – | – | – | O=C(c1cnn(C(=O)N2CC3CN(Cc4cc(Cl)ccc4Cl)CC3C2)c1)N1CCCC1 (stereo not shown) [Example 22, (5-(2,5-dichlorobenzyl)hexahydropyrrolo[3,4-c]pyrrol-2(1H)-yl)(4-(pyrrolidine-1-carbonyl)-1H-pyrazol-1-yl)methanone] | –
≥ 75 | ≥ 75 | 0.1 to 1 | 0.1 to 1 | – | – | CC(=O)N(Cc1ccccc1Cl)[C@@H]1C[C@@H]2CN(C(=O)n3cc(Cl)cn3)C[C@@H]2C1 [Example 62, N-(cis-2-(4-chloro-1H-pyrazole-1-carbonyl)octahydrocyclopenta[c]pyrrol-5-yl)-N-(2-chlorobenzyl)acetamide] | –

From US10385057B2, “Pyrazole compounds and methods of making and using same” (Lundbeck La Jolla Research Center, Inc., priority 2015, dated 2019)
